Experimental data: patent US7902196B2, “Synthesis of avrainvillamide, strephacidin B, and analogues thereof” (President and Fellows of Harvard College, priority 2005, dated 2011)

Legend:
[1] = decomposition of stephacidin B into avrainvillamide (FIG. 18); format: physicochemical
[2] = test system: cultured human cancer cells; conditions: reported for the fungal isolates; cited from earlier work
[3] = interconversion of stephacidin B (1) and 2 in solution; format: physicochemical; conditions: 50% DMSO-d6-CD3CN, 23° C.
Method: Our preliminary studies leave little doubt that 1 and 2 are readily interconverted in solution. For example, concentration of an acetonitrile-water solution of pure synthetic stephacidin B (1) at 38° C. afforded a 2:1 mixture of 2 and 1, as well as unidentified decomposition products. Also, whereas solutions of pure 1 in 50% DMSO-d6-CD3CN appeared to be stable for at least 48 h at 23° C. (The merits of the DMSO-d6-CD3CN solvent system in stabilizing stephacidin B were discussed in Qian-Cutrone et al. J. Am. Chem. Soc. 2002, 124, 14556; incorporated herein by reference.), addition of powdered 3-Å molecular sieves led to partial retro-dimerization, giving a 2:1 mixture of 1 and 2 within 1 h at 23° C. We also observed partial transformation of 1 to form 2 upon exposure to silica gel (2D-TLC analysis). From the data thus far it is clear that (−)-2 and (+)-1 readily interconvert under mild conditions. […] In theory, the converse may be true, though this seems less likely, simply upon consideration of concentration effects. Our results also leave open the possibility that stephacidin B is an artifact of the isolation of 2; the converse may be true instead, though this would appear to be less likely.

apoptosis and necrosis = assay: induction of apoptosis and necrosis (FIG. 20); format: cell-based
Method: FIG. 20 induces apoptosis at 1-4 μM and necrosis at 8 μM.

[4] = test system: multidrug-resistant bacteria; conditions: reported; cited from earlier work
cell cycle = assay: effect of avrainvillamide on the cell cycle (FIG. 19); format: cell-based
[5] = 1,5-addition of methanol-d4 to 2
[6] = stability in solution protected from light

In the case of CC1(C)C=Cc2c(ccc3c2[N+]([O-])=C2C(C)(C)[C@@H]4C[C@]56CCCN5C(=O)C4(NC6=O)C4N5C(=O)C67CCCN6C(=O)[C@]56C(C7)C(C)(C)c5c(c7ccc8c(c7n5O)C=CC(C)(C)O8)[C@H]6C234)O1 (stereo partly drawn) [stephacidin B], the “avrainvillamide formed by decomposition of stephacidin B” value [1] is listed as 1.7 equiv and the antiproliferative activity [2] is listed as “exhibit antiproliferative activity”.
For avrainvillamide [compound 1], the “time solutions appeared stable” value [3] was “at least 48 h”.
For CC1(C)C=Cc2c(ccc3c2[N+]([O-])=C2C3=C[C@@]34NC(=O)[C@]5(CCCN5C3=O)C[C@H]4C2(C)C)O1 [avrainvillamide], the concentration inducing apoptosis (apoptosis and necrosis) is given as 1 to 4 µM, the concentration inducing necrosis (apoptosis and necrosis) is given as 8 µM and the antimicrobial activity [4] is given as “anti-microbial activity against multidrug-resistant bacteria”. For the same compound, the “species present under physiological conditions” value [1] was “major species present under physiological conditions”, the antiproliferative activity [2] was “exhibit antiproliferative activity” and the “effect on the cell cycle” value (cell cycle) was “induces arrest in G2/M”. For the same compound, the “equilibrium constant, methanol-d4 adducts combined to 2” value ([5]; 23° C., tentative) was 7.7, the “time to form the products of 1,5-addition of methanol-d4” value ([5]; pure methanol-d4, 23° C.) was less than 10 min and the half-life ([5]; solution in pure methanol-d4) was less than 10 min.
For CC(C)(C)/C=C/C=[N+]([O-])c1ccccc1 [α-(trans-3,3-dimethyl-1-butenyl)-N-phenylnitrone], the “time stable in solution” value ([6]; 37 mM solution in methylene-d2-chloride, 23° C., protected from light) was “at least 7 h” and the “stability upon concentration to dryness” value ([6]; 1H NMR analysis) was “decomposed within two hours”.
In the case of CC1(C)C=Cc2c(ccc3c2[N+]([O-])=C2C3=C[C@@]34NC(=O)[C@]5(CCCN5C3=O)C[C@H]4C2(C)C)O1 [compound 1, avrainvillamide], the antimicrobial activity [4] is listed as “antimicrobial activity against multidrug-resistant bacteria”.
